# Source: US9012651B2, “TRPV3 modulators” (AbbVie Inc., priority 2011, dated 2015)
# Target: human TRPV3 receptors (Homo sapiens (Human), UniProt Q8NET8)
# Experiment: Calcium flux assay (FLIPR TETRA), inhibition of the 2-APB response
# Type: cell-based
# Details: recombinant HEK293 cells stably expressing TRPV3, Calcium-4 dye, 2-APB at its EC80
# How it was run: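 Responses are given relative to the maximal 2-APB signal in the absence of compound, using peak fluorescence over baseline. Measured by FLIPR Tetra calcium flux in stable human and mouse TRPV3 HEK293 cells after 90-120 min dark dye incubation.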
# Chain of human TRPV3 receptors (Q8NET8 whole entry): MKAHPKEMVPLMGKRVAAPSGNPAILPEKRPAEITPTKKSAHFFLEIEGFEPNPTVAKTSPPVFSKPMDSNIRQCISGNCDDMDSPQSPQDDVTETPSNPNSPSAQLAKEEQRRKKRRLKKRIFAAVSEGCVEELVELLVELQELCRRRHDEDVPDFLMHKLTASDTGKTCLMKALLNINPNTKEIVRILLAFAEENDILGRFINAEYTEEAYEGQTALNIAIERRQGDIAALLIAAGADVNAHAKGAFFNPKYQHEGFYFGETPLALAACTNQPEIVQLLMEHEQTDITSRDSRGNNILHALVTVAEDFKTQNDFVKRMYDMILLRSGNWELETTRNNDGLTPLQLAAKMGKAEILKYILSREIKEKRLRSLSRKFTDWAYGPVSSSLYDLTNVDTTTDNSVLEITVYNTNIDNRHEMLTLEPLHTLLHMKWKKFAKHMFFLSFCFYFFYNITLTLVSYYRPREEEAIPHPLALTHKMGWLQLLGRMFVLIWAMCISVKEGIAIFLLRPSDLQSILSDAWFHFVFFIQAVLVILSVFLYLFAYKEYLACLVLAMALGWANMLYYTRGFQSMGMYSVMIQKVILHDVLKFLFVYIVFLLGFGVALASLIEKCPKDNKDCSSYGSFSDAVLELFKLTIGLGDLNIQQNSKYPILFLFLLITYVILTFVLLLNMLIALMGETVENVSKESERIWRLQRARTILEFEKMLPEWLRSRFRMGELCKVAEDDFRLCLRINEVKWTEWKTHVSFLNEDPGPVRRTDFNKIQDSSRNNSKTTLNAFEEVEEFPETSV
row,IC50 [nM],Structure (SMILES)
1,> 20000,"CC(C)[C@H](CO)NCc1nc(-c2ccc(N3CCN(C)CC3)nc2)ccc1F [Example 254, (2R)-2-({[5-fluoro-6′-(4-methylpiperazin-1-yl)-2,3′-bipyridin-6-yl]methyl}amino)-3-methylbutan-1-ol]"
2,> 20000,"OCC[C@H](NCc1ccnc(-c2ccc(C(F)(F)F)cc2)n1)c1ccccc1 [Example 163, (3S)-3-phenyl-3-[({2-[4-(trifluoromethyl)phenyl]pyrimidin-4-yl}methyl)amino]propan-1-ol]"
3,10900,"CC(C)[C@H](CO)NCc1nc(-c2ccc(C(=O)N3CCCC3)cc2)ccc1F [Example 276, {4-[5-fluoro-6-({[(2R)-1-hydroxy-3-methylbutan-2-yl]amino}methyl)pyridin-2-yl]phenyl}(pyrrolidin-1-yl)methanone]"
4,190,"CC(C)[C@H](CO)NCc1nc(-c2cccc(S(=O)(=O)N(C)C(C)(C)C)c2)ccc1F [Example 61, N-tert-butyl-3-[5-fluoro-6-({[(2R)-1-hydroxy-3-methylbutan-2-yl]amino}methyl)pyridin-2-yl]-N-methylbenzenesulfonamide]"
5,960,"CC(C)[C@H](CO)NCc1nc(N2CCC(F)(F)CC2)ccc1F [Example 92, (2R)-2-({[6-(4,4-difluoropiperidin-1-yl)-3-fluoropyridin-2-yl]methyl}amino)-3-methylbutan-1-ol]"
6,160,"CC(C)[C@H](CO)NCc1nc(-c2ccc(F)c(F)c2F)ccc1F [Example 245, (2R)-2-({[3-fluoro-6-(2,3,4-trifluorophenyl)pyridin-2-yl]methyl}amino)-3-methylbutan-1-ol]"
7,380,"Cc1ccc(-c2ccc(F)c(CN[C@@H](CO)C(C)C)n2)s1 [Example 243, (2R)-2-({[3-fluoro-6-(5-methylthiophen-2-yl)pyridin-2-yl]methyl}amino)-3-methylbutan-1-ol]"
8,1470,"CC[C@H](CO)NCc1ccnc(-c2ccc(S(=O)(=O)C(F)(F)F)cc2)n1 [Example 209, (2R)-2-{[(2-{4-[(trifluoromethyl)sulfonyl]phenyl}pyrimidin-4-yl)methyl]amino}butan-1-ol]"
9,13500,"O=S(=O)(c1ccc(-c2nccc(CNC3(CO)CCCCC3)n2)cc1)C(F)(F)F [Example 208, (1-{[(2-{4-[(trifluoromethyl)sulfonyl]phenyl}pyrimidin-4-yl)methyl]amino}cyclohexyl)methanol]"
10,8150,"CC(O)C(C)NCc1ccnc(-c2ccc(C(F)(F)F)nc2)n1 (centres unmarked) [Example 190, 3-[({2-[6-(trifluoromethyl)pyridin-3-yl]pyrimidin-4-yl}methyl)amino]butan-2-ol]"
11,> 20000,"COCC(CO)NCc1ccnc(-c2ccc(C(F)(F)F)cn2)n1 (centres unmarked) [Example 195, 3-methoxy-2-[({2-[5-(trifluoromethyl)pyridin-2-yl]pyrimidin-4-yl}methyl)amino]propan-1-ol]"
12,790,"CC(C)[C@H](CO)NCc1nc(C2CCC(C)(C)CC2)ccc1F [Example 202, (2R)-2-({[6-(4,4-dimethylcyclohexyl)-3-fluoropyridin-2-yl]methyl}amino)-3-methylbutan-1-ol]"
13,> 20000,"CC(C)[C@@H](CO)NCc1ccnc(-c2ccc(C(F)(F)F)cc2)n1 [Example 155, (2S)-3-methyl-2-[({2-[4-(trifluoromethyl)phenyl]pyrimidin-4-yl}methyl)amino]butan-1-ol]"
14,920,"C=C(c1ccccc1)c1ccc(F)c(CN[C@@H](CO)C(C)C)n1 [Example 124, (2R)-2-({[3-fluoro-6-(1-phenylethenyl)pyridin-2-yl]methyl}amino)-3-methylbutan-1-ol]"
15,120,"CC(C)[C@H](CO)NCc1nc(-c2ccc(F)c(Cl)c2)ccc1F [Example 294, (2R)-2-({[6-(3-chloro-4-fluorophenyl)-3-fluoropyridin-2-yl]methyl}amino)-3-methylbutan-1-ol]"
16,> 20000,"OCC1(CNCc2ccnc(-c3ccc(C(F)(F)F)cc3)n2)CCC1 [Example 157, (1-{[({2-[4-(trifluoromethyl)phenyl]pyrimidin-4-yl}methyl)amino]methyl}cyclobutyl)methanol]"
17,750,"CC(C)[C@H](CO)NCc1nc(-c2cnc(N(C)C)nc2)ccc1F [Example 261, (2R)-2-[({6-[2-(dimethylamino)pyrimidin-5-yl]-3-fluoropyridin-2-yl}methyl)amino]-3-methylbutan-1-ol]"
18,> 20000,"OC[C@H]1CCCC[C@@H]1NCc1ccnc(-c2ccc(C(F)(F)F)cc2)n1 [Example 167, {(1S,2S)-2-[({2-[4-(trifluoromethyl)phenyl]pyrimidin-4-yl}methyl)amino]cyclohexyl}methanol]"
19,290,"CC(C)[C@H](CO)NCc1nc(C#Cc2ccc(F)cc2)ccc1F [Example 238, (2R)-2-[({3-fluoro-6-[(4-fluorophenyl)ethynyl]pyridin-2-yl}methyl)amino]-3-methylbutan-1-ol]"
20,7300,"CC(C)C[C@H](CO)NCc1ccnc(-c2ccc(C(F)(F)F)cc2)n1 [Example 142, (2R)-4-methyl-2-[({2-[4-(trifluoromethyl)phenyl]pyrimidin-4-yl}methyl)amino]pentan-1-ol]"
21,300,"CC(O)C(C)NCc1nc(-c2ccc(C(F)(F)F)cc2)ccc1F (centres unmarked) [Example 86, 3-[({3-fluoro-6-[4-(trifluoromethyl)phenyl]pyridin-2-yl}methyl)amino]butan-2-ol]"
22,330,"CC(C)[C@H](CO)NCc1nc(N2Cc3ccc(C(F)(F)F)cc3C2)ccc1F [Example 96, (2R)-2-[({3-fluoro-6-[5-(trifluoromethyl)-1,3-dihydro-2H-isoindol-2-yl]pyridin-2-yl}methyl)amino]-3-methylbutan-1-ol]"
23,410,"OC[C@H](NCc1nc(-c2ccc(C(F)(F)F)cc2)ccc1F)C1CC1 [Example 29, (2R)-2-cyclopropyl-2-[({3-fluoro-6-[4-(trifluoromethyl)phenyl]pyridin-2-yl}methyl)amino]ethano 1]"
24,8280,"CC(C)[C@H](CO)NCc1nc(C2CCC3(CC2)OCCO3)ccc1F [Example 214, (2R)-2-({[6-(1,4-dioxaspiro[4.5]dec-8-yl)-3-fluoropyridin-2-yl]methyl}amino)-3-methylbutan-1-ol]"
25,480,"CC(C)[C@H](CO)NCc1nc(-c2cccc(N3CCCC3)c2)ccc1F [Example 49, (2R)-2-[({3-fluoro-6-[3-(pyrrolidin-1-yl)phenyl]pyridin-2-yl}methyl)amino]-3-methylbutan-1-ol]"
26,110,"CC(C)[C@H](CO)NCc1nc(N2CCc3c(F)cccc3C2)ccc1F [Example 97, (2R)-2-({[3-fluoro-6-(5-fluoro-3,4-dihydroisoquinolin-2(1H)-yl)pyridin-2-yl]methyl}amino)-3-methylbutan-1-ol]"
27,2590,"CC(O)C(C)NCc1nc(-c2ccc(C(F)(F)F)nc2)ccc1F (centres unmarked) [Example 90, 3-({[5-fluoro-6′-(trifluoromethyl)-2,3′-bipyridin-6-yl]methyl}amino)butan-2-ol]"
28,9320,"OCC1(NCc2ccnc(-c3ccc(C(F)(F)F)cc3)n2)CCCC1 [Example 133, {1-[({2-[4-(trifluoromethyl)phenyl]pyrimidin-4-yl}methyl)amino]cyclopentyl}methanol]"
29,1280,"CC(C)[C@H](CO)NCc1nc(-c2cc(C(F)(F)F)cc(C(F)(F)F)c2)ccc1F [Example 22, (2R)-2-[({6-[3,5-bis(trifluoromethyl)phenyl]-3-fluoropyridin-2-yl}methyl)amino]-3-methylbutan-1-ol]"
